Structures are written as SMILES.

Usually EC50 stands for the concentration needed to bring the measured effect to its halfway point.

For the experiment, the target named is human LPAR1 (Homo sapiens (Human), UniProt Q92633). Kind of experiment: LPAR1 intracellular calcium mobilization assay (antagonist mode, FLIPR). In kind it is cell-based. The note with it: CHO-K1 EDG2 cells expressing human LPAR1, LPA 18:2 at EC80 (100 nM), test compound 0.5 nM to 10 μM. In general terms: A change in cytosolic calcium serves as a functional read-out for many receptors and channels.
Sequence of human LPAR1 (Q92633 whole entry): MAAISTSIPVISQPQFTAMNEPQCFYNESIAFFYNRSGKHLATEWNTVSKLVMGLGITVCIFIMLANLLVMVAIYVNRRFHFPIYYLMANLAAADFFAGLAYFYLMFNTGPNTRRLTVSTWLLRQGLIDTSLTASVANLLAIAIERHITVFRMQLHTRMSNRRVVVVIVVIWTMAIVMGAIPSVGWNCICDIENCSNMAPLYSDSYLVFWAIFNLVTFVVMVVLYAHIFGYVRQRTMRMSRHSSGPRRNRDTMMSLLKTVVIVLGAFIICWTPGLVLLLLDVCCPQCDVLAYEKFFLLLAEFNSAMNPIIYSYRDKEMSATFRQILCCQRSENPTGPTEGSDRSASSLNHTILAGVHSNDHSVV
On to `C[C@@H](OC(=O)Nc1c(-c2ccc(NC(=O)c3cn[nH]c3)cn2)nnn1C)c1cccnc1Cl` [Compound 113, (R)-1-(2-chloropyridin-3-yl)ethyl (4-(5-(1H-pyrazole-4-carboxamido)pyridin-2-yl)-1-methyl-1H-1,2,3-triazol-5-yl)carbamate], for which the half-maximal effective concentration (EC50) was 775 nM.
Next, `C[C@@H](OC(=O)Nc1c(-c2ccc(NC(=O)[C@@H]3C[C@H]3F)cn2)nnn1C)c1cc(F)cnc1F` [Compound 161, (R)-1-(2,5-difluoropyridin-3-yl)ethyl (4-(5-((1S,2R)-2-fluorocyclopropane-1-carboxamido)pyridin-2-yl)-1-methyl-1H-1,2,3-triazol-5-yl)carbamate]: 66.8 nM; `C[C@@H](OC(=O)Nc1c(-c2ccc(NC(=O)c3ccc(Cl)nn3)cn2)nnn1C)c1cc(F)cnc1F` [Compound 250, (R)-1-(2,5-difluoropyridin-3-yl)ethyl (4-(5-(6-chloropyridazine-3-carboxamido)pyridin-2-yl)-1-methyl-1H-1,2,3-triazol-5-yl)carbamate]: 276 nM.
Next, `C[C@@H](OC(=O)Nc1c(-c2ccc(NC(=O)[C@H]3C[C@@H](C#N)C3)cn2)nnn1C)c1cccnc1Cl` [Compound 128, (R)-1-(2-chloropyridin-3-yl)ethyl (4-(5-((1s,3S)-3-cyanocyclobutane-1-carboxamido)pyridin-2-yl)-1-methyl-1H-1,2,3-triazol-5-yl)carbamate]: 309 nM; `C[C@@H](OC(=O)Nc1c(-c2cnc(NC(=O)c3ccc(C(F)(F)F)nc3)cn2)nnn1C)c1cc(F)cnc1F` [Compound 322, (R)-1-(2,5-difluoropyridin-3-yl)ethyl (1-methyl-4-(5-(6-(trifluoromethyl)nicotinamido)pyrazin-2-yl)-1H-1,2,3-triazol-5-yl)carbamate]: 170 nM.
Next, `C[C@@H](OC(=O)Nc1c(-c2ccc(NC(=O)C3(c4cccnc4)CC(F)(F)C3)cn2)nnn1C)c1cccnc1Cl` [Compound 198, (R)-1-(2-chloropyridin-3-yl)ethyl (4-(5-(3,3-difluoro-1-(pyridin-3-yl)cyclobutane-1-carboxamido)pyridin-2-yl)-1-methyl-1H-1,2,3-triazol-5-yl)carbamate]: 613 nM; `CNC(=O)Nc1ccc(-c2nnn(C)c2NC(=O)O[C@H](CF)c2cccc(F)c2)nc1` [Compound 187, (S)-2-fluoro-1-(3-fluorophenyl)ethyl (1-methyl-4-(5-(3-methylureido)pyridin-2-yl)-1H-1,2,3-triazol-5-yl)carbamate]: 1240 nM; `C[C@@H](OC(=O)Nc1c(-c2ccc(NC(=O)[C@@H]3CCC3(F)F)cn2)nnn1C)c1cccnc1Cl` [Compound 90, (R)-1-(2-chloropyridin-3-yl)ethyl (4-(5-((S)-2,2-difluorocyclobutane-1-carboxamido)pyridin-2-yl)-1-methyl-1H-1,2,3-triazol-5-yl)carbamate]: 73.5 nM.
As to `Cc1cnc(F)cc1C(C)OC(=O)Nc1c(-c2ccc(NC(=O)C3CC(F)(F)C3)cn2)nnn1C` (stereo not drawn) [Compound 26, 1-(2-fluoro-5-methylpyridin-4-yl)ethyl (4-(5-(3,3-difluorocyclobutane-1-carboxamido)pyridin-2-yl)-1-methyl-1H-1,2,3-triazol-5-yl)carbamate], the EC50 was 587 nM.
Next, `C[C@@H](OC(=O)Nc1c(-c2ccc(NC=O)cn2)nnn1C)c1cccnc1Cl` [Compound 16, (R)-1-(2-chloropyridin-3-yl)ethyl (4-(5-formamidopyridin-2-yl)-1-methyl-1H-1,2,3-triazol-5-yl)carbamate]: 2180 nM; `C[C@@H](OC(=O)Nc1c(-c2ccc(NC(=O)[C@@H]3C[C@H]3c3ccncc3)cn2)nnn1C)c1cc(F)cnc1F` (mixture of isomers) [Compound 217, (R)-1-(2,5-difluoropyridin-3-yl)ethyl (1-methyl-4-(5-((1RS,2RS)-2-(pyridin-4-yl)cyclopropane-1-carboxamido)pyridin-2-yl)-1H-1,2,3-triazol-5-yl)carbamate]: 58.1 nM; `C[C@@H](OC(=O)Nc1c(-c2ccc(NC(=O)C3CC4(C3)CC3(CCC3)C4)cn2)nnn1C)c1cccnc1Cl` [Compound 77, (R)-1-(2-chloropyridin-3-yl)ethyl (4-(5-(dispiro[3.1.36.14]decane-2-carboxamido)pyridin-2-yl)-1-methyl-1H-1,2,3-triazol-5-yl)carbamate]: 25.5 nM.
With `C[C@@H](OC(=O)Nc1c(-c2cnc(NC(=O)c3ccc(Cl)nc3)cn2)nnn1C)c1cc(F)cnc1F` [Compound 320, (R)-1-(2,5-difluoropyridin-3-yl)ethyl (4-(5-(6-chloronicotinamido)pyrazin-2-yl)-1-methyl-1H-1,2,3-triazol-5-yl)carbamate] the figure was 131 nM.
`C[C@@H](OC(=O)Nc1c(-c2ccc(NC(=O)C3(C)CC(F)(F)C3)cn2)nnn1C)c1cc(F)cnc1F` [Compound 226, (R)-1-(2,5-difluoropyridin-3-yl)ethyl (4-(5-(3,3-difluoro-1-methylcyclobutane-1-carboxamido)pyridin-2-yl)-1-methyl-1H-1,2,3-triazol-5-yl)carbamate]: the EC50 is 184 nM.
As for `C[C@@H](OC(=O)Nc1c(-c2ccc(NC(=O)[C@H]3C[C@@H](F)C3)cn2)nnn1C)c1cccnc1Cl` [Compound 71, (R)-1-(2-chloropyridin-3-yl)ethyl (4-(5-((1s,3S)-3-fluorocyclobutane-1-carboxamido)pyridin-2-yl)-1-methyl-1H-1,2,3-triazol-5-yl)carbamate], the EC50 was found to be 89.7 nM.
Next, `C[C@@H](OC(=O)Nc1c(-c2ccc(NC(=O)C3(C#N)CCNCC3)cn2)nnn1C)c1cc(F)cnc1F` [Compound 299, (R)-1-(2,5-difluoropyridin-3-yl)ethyl (4-(5-(4-cyanopiperidine-4-carboxamido)pyridin-2-yl)-1-methyl-1H-1,2,3-triazol-5-yl)carbamate]: 4990 nM; `C[C@@H](OC(=O)Nc1c(-c2ccc(NC(=O)c3ccc(C(F)(F)F)nc3)cn2)nnn1C)c1cc(F)cnc1Cl` [Compound 288, (R)-1-(2-chloro-5-fluoropyridin-3-yl)ethyl (1-methyl-4-(5-(6-(trifluoromethyl)nicotinamido)pyridin-2-yl)-1H-1,2,3-triazol-5-yl)carbamate]: 33.5 nM; `C[C@@H](OC(=O)Nc1c(-c2ccc(NC(=O)C34CCC(O)(CC3)CC4)cn2)nnn1C)c1cccnc1Cl` [Compound 115, (R)-1-(2-chloropyridin-3-yl)ethyl (4-(5-(4-hydroxybicyclo[2.2.2]octane-1-carboxamido)pyridin-2-yl)-1-methyl-1H-1,2,3-triazol-5-yl)carbamate]: 654 nM.
Next, `C[C@@H](OC(=O)Nc1c(-c2ccc(NC(=O)C3(N)CC(F)(F)C3)cn2)nnn1C)c1cccnc1Cl` [Compound 310, (R)-1-(2-chloropyridin-3-yl)ethyl (4-(5-(1-amino-3,3-difluorocyclobutane-1-carboxamido)pyridin-2-yl)-1-methyl-1H-1,2,3-triazol-5-yl)carbamate]: 454 nM; `C[C@@H](OC(=O)Nc1c(-c2ccc(NC(=O)c3cnc(N(C)C)nc3)cn2)nnn1C)c1cc(F)cnc1F` [Compound 282, (R)-1-(2,5-difluoropyridin-3-yl)ethyl (4-(5-(2-(dimethylamino)pyrimidine-5-carboxamido)pyridin-2-yl)-1-methyl-1H-1,2,3-triazol-5-yl)carbamate]: 1190 nM.
Next, `C[C@@H](OC(=O)Nc1c(-c2ccc(NC(=O)C#CC3CC3)cn2)nnn1C)c1cccnc1Cl` [Compound 75, (R)-1-(2-chloropyridin-3-yl)ethyl (4-(5-(3-cyclopropylpropiolamido)pyridin-2-yl)-1-methyl-1H-1,2,3-triazol-5-yl)carbamate]: 23.4 nM; `COc1cc(C(=O)Nc2ccc(-c3nnn(C)c3NC(=O)O[C@H](C)c3cc(F)cnc3F)nc2)on1` [Compound 281, (R)-1-(2,5-difluoropyridin-3-yl)ethyl (4-(5-(3-methoxyisoxazole-5-carboxamido)pyridin-2-yl)-1-methyl-1H-1,2,3-triazol-5-yl)carbamate]: 86.6 nM; `C[C@@H](OC(=O)Nc1c(-c2ccc(NC(=O)C34COC(C3)C4)cn2)nnn1C)c1cccnc1Cl` [Compound 104, (R)-1-(2-chloropyridin-3-yl)ethyl (4-(5-(2-oxabicyclo[2.1.1]hexane-4-carboxamido)pyridin-2-yl)-1-methyl-1H-1,2,3-triazol-5-yl)carbamate]: 560 nM.
`C[C@@H](OC(=O)Nc1c(-c2ccc(NC(=O)C3(C#N)CC(O)C3)cn2)nnn1C)c1cccnc1Cl` (stereo partly drawn) [Compound 135, (R)-1-(2-chloropyridin-3-yl)ethyl (4-(5-(1-cyano-3-hydroxycyclobutane-1-carboxamido)pyridin-2-yl)-1-methyl-1H-1,2,3-triazol-5-yl)carbamate]: the EC50 turned out to be 726 nM.
Next, `C[C@@H](OC(=O)Nc1c(-c2ccc(NC(=O)C3(CN)CC3(F)F)cn2)nnn1C)c1cc(F)cnc1F` (stereo partly drawn) [Compound 300, (R)-1-(2,5-difluoropyridin-3-yl)ethyl (4-(5-(1-(aminomethyl)-2,2-difluorocyclopropane-1-carboxamido)pyridin-2-yl)-1-methyl-1H-1,2,3-triazol-5-yl)carbamate]: 961 nM; `C[C@@H](OC(=O)Nc1c(-c2ccc(NC(=O)c3ccnc(C(F)(F)F)c3F)cn2)nnn1C)c1cc(F)cnc1F` [Compound 261, (R)-1-(2,5-difluoropyridin-3-yl)ethyl (4-(5-(3-fluoro-2-(trifluoromethyl)isonicotinamido)pyridin-2-yl)-1-methyl-1H-1,2,3-triazol-5-yl)carbamate]: 11.9 nM; `CC(=O)Nc1ccc(-c2nnn(C)c2NC(=O)O[C@H](C)c2cccnc2Cl)nc1` [Compound 23, (R)-1-(2-chloropyridin-3-yl)ethyl (4-(5-acetamidopyridin-2-yl)-1-methyl-1H-1,2,3-triazol-5-yl)carbamate]: 1100 nM.

For the origin of these results see US11912686B2 (Gilead Sciences, Inc., priority 2020, dated 2024).
